What all share (type): cell-based
In assay [1] the test system is Wnt activity (Sp5-Luc reporter, SW480 colon carcinoma cells). Briefly: Wnt activity screening assay, Sp5-Luc reporter gene in SW480 cells. To be noted: Homo sapiens; for EC50: Sp5-Luc reporter, SW480 cells, overnight incubation; for inhibition at 10 µM: SW480, read-out: percent inhibition at 10 μM. The essentials: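 SW480 cells stably carrying a luciferase reporter driven by an Sp5 promoter with eight TCF/LEF sites, plated overnight in 1% FBS medium at 37 °C. Luminescence read with BrightGlo. Signals normalized to DMSO-treated cells; EC50 from four-parameter variable-slope fit.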
A general note: In a reporter assay the amount or activity of a reporter protein is the signal.

Another assay concerns SW480 colon cancer cells. Briefly: Cell viability assay (CellTiter-Blue). To be noted: Homo sapiens; for EC50: 96 h, SW480 cell viability, four days; for inhibition at 10 µM: SW480, 96 h, read-out: percent inhibition at 10 μM. A digest of the protocol:
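Fluorescence from resazurin reduced to resorufin by metabolically active cells was the read-out, taken after ~3 h with CellTiter-Blue.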
A general note: Resazurin is reduced to fluorescent resorufin, in cell work by metabolically active cells.

Assay [2] concerns primary human fibroblasts derived from IPF patients (LL29 cells). Briefly: Inhibition of fibrotic process, αSMA staining in TGF-β1 treated fibroblasts. Conditions: Fibroblast; for EC50: 96 h, LL29 cells, TGF-β1 20 ng/mL, 4 days, % αSMA positive cells; for inhibition at 10 µM: read-out: percent inhibition at 10 μM. The essentials: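 LL29 fibroblasts plated in F12 with 1% FBS were stimulated with TGF-β1 alongside compound, with TGF-β1 plus DMSO wells as controls. After 4 days of incubation, SYTOX green was added at 1 μM final for 30 min at room temperature.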

The test system of assay [3] is primary human mesenchymal stem cells (hMSCs). Briefly: Induction of chondrogenesis in hMSCs (nodule count). Conditions: 6 days; for EC50: concentration required to induce 50% levels of chondrogenesis vs TGF-β3, read-out: Conc (nM) of 50% TGF-β3 activity; for Emax: relative to TGF-β3 (10 ng/mL) positive control, read-out: Max. Activity as % TGF-β3 activity. The source says: Representative compounds were screened using primary human mesenchymal stem cells (hMSCs) to determine their ability to induce chondrogenesis (process by which cartilage is developed).
Primary human mesenchymal stem cells (hMSCs) were purchased from Lonza (Walkersville, Md.) and expanded in Mesenchymal Stem Cell Growth Media (Lonza). Cells between passage 3 and 6 were used for the experiments.
To image chondrogenic nodules, the cells were fixed using 4% formaldehyde (Electron Microscopy Sciences), and stained with 2 μg/mL Rhodamine B (Sigma-Aldrich) and 20 μM Nile Red (Sigma-Aldrich) [Johnson K., et. al, A Stem Cell-Based Approach to Cartilage Repair, Science, (2012). […] Number of nodules in each well was normalized to the average of 3 DMSO treated wells on the same plate using Excel (Microsoft Inc.). The normalized averages (fold change over DMSO) of 3 replicate wells for each compound concentration were calculated. Due to solubility limitations of some of the compounds, curve fitting was incomplete leading to inaccurate EC50 determinations.
Using TGF-β3 as a positive control, the concentration of representative compounds required to induce 50% levels of chondrogenesis is reported. In addition, the maximum activity of each compound and the respective dose that each compound reached maximum chondrogenesis activity is reported.

A further assay has as its system IL-6. Briefly: IL-6 inhibition in LPS-stimulated THP-1 cells (HTRF). Conditions: Homo sapiens; for EC50: THP-1 cells, LPS 500 ng/mL, 22 hours, IL6 HTRF; for inhibition at 10 µM: THP-1, read-out: percent inhibition at 10 μM. A digest of the protocol: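 Serum-reduced (1% FBS, 24 h) THP-1 cells, 5000/well, exposed to compound 2 h at 37 °C, then stimulated with 500 ng/mL LPS for 22 h. Secreted IL-6 measured by HTRF (665/620 ratio), normalised to DMSO; EC50 by four-parameter fit, duplicates.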
A general note: TR-FRET usually uses a lanthanide donor and a delayed reading to cut background.

SMILES strings stand for the structures.

Turning to `CN(C)Cc1cncc(-c2cnc3[nH]nc(-c4cc5c(-c6ccccc6F)cncc5[nH]4)c3c2)c1` [Compound 69, 1-(5-(3-(4-(2-Fluorophenyl)-1H-pyrrolo[2,3-c]pyridin-2-yl)-1H-pyrazolo [3,4-b]pyridin-5-yl)pyridin-3-yl)-N,N-dimethylmethanamine], the EC50 was determined as 2490 nM in assay [1]; 1050 nM in the assay with SW480 colon cancer cells; 1890 nM in assay [2]; 30 nM in assay [3]; 131 nM in the assay on IL-6. The Emax in assay [3] worked out at 61%.
As to `O=C(Nc1cncc(-c2cnc3[nH]nc(-c4cc5c(-c6ccccc6F)cncc5[nH]4)c3c2)c1)C1CC1` [Compound 76, N-(5-(3-(4-(2-Fluorophenyl)-1H-pyrrolo[2,3-c]pyridin-2-yl)-1H-pyrazolo [3,4-b]pyridin-5-yl)pyridin-3-yl)cyclopropanecarboxamide], the EC50 in assay [1] was 390 nM; in the assay with SW480 colon cancer cells, 292 nM; in assay [2], 110 nM; in assay [3], 10 nM; in the assay with IL-6 it was over 10000 nM. Also, the Emax in assay [3] was 52%. In addition, the inhibition (as a rule, the drop in the measured response relative to a control, in per cent) at 10 µM in the assay on IL-6 amounted to 22%.
Regarding `Cc1ccncc1-c1cnc2[nH]nc(-c3cc4c(-c5cccnc5)cncc4[nH]3)c2c1` [Compound 89, 5-(4-Methylpyridin-3-yl)-3-(4-(pyridin-3-yl)-1H-pyrrolo[2,3-c]pyridin-2-yl)-1H-pyrazolo[3,4-b]pyridine], the EC50 turned out to be 2250 nM in assay [1], 3290 nM in the assay with SW480 colon cancer cells, 1480 nM in assay [2] and 3440 nM in the assay with IL-6. The Emax in assay [3] was determined as 17%.
Regarding `O=C(Nc1cncc(-c2cnc3[nH]nc(-c4cc5c(-c6cccnc6)cncc5[nH]4)c3c2)c1)c1ccccc1` [Compound 95, N-(5-(3-(4-(Pyridin-3-yl)-1H-pyrrolo[2,3-c]pyridin-2-yl)-1H-pyrazolo[3,4-b]pyridin-5-yl)pyridin-3-yl)benzamide], the inhibition at 10 µM was 0% in assay [1], 8.7% with SW480 colon cancer cells, 0% in assay [2] and 46.5% in the assay on IL-6. The EC50 is over 10000 nM in assay [1]; over 10000 nM in the assay with SW480 colon cancer cells; over 10000 nM in assay [2]; 100 nM in assay [3]; over 10000 nM in the assay with IL-6. Further, the Emax in assay [3] came to 155%.
For the molecule `CC(C)(C)CC(=O)Nc1cncc(-c2cnc3[nH]nc(-c4cc5c(-c6cccnc6)cncc5[nH]4)c3c2)c1` [Compound 100, 3,3-Dimethyl-N-(5-(3-(4-(pyridin-3-yl)-1H-pyrrolo[2,3-c]pyridin-2-yl)-1H-pyrazolo[3,4-b]pyridin-5-yl)pyridin-3-yl)butanamide], the results for the inhibition at 10 µM (in assay [1]; in the assay with SW480 colon cancer cells) were 17.3% and 18.4%, respectively. For the same molecule, the EC50 in assay [1] is over 10000 nM; in the assay on SW480 colon cancer cells, over 10000 nM; in assay [2] it was 1910 nM; in the assay on IL-6 it was 647 nM. Further, the Emax in assay [3] came to 37%.
Regarding `c1cncc(-c2cncc3[nH]c(-c4n[nH]c5ncc(-c6cncnc6)cc45)cc23)c1` [Compound 111, 3-(4-(Pyridin-3-yl)-1H-pyrrolo[2,3-c]pyridin-2-yl)-5-(pyrimidin-5-yl)-1H-pyrazolo[3,4-b]pyridine], the inhibition at 10 µM in assay [1] was determined as 11.9%; with SW480 colon cancer cells, 8.6%. Also, the EC50 in assay [1] is over 10000 nM; in the assay with SW480 colon cancer cells, over 10000 nM; in assay [2] it was 1720 nM; in the assay with IL-6, 6590 nM. The Emax in assay [3] is 24%.
For `Nc1cncc(-c2cnc3[nH]nc(-c4cc5c(-c6ccncc6)cncc5[nH]4)c3c2)c1` [Compound 115, 5-(3-(4-(Pyridin-4-yl)-1H-pyrrolo[2,3-c]pyridin-2-yl)-1H-pyrazolo[3,4-b]pyridin-5-yl)pyridin-3-amine], the inhibition at 10 µM in assay [1] was found to be 13.9%; with SW480 colon cancer cells, 17.8%. Also, the EC50 is over 10000 nM in assay [1], over 10000 nM in the assay on SW480 colon cancer cells, 3550 nM in assay [2] and 412 nM with IL-6. The Emax in assay [3] amounted to 32%.
On to `CN(C)c1cncc(-c2cnc3[nH]nc(-c4cc5c(-c6ccncc6)cncc5[nH]4)c3c2)c1` [Compound 119, N,N-Dimethyl-5-(3-(4-(pyridin-4-yl)-1H-pyrrolo[2,3-c]pyridin-2-yl)-1H-pyrazolo[3,4-b]pyridin-5-yl)pyridin-3-amine], for which the inhibition at 10 µM in assay [1] stood at 2.5%; with SW480 colon cancer cells it was 8.9%; in assay [2], 0%; with IL-6 it was 40.7%. The EC50 in assay [1] was over 10000 nM; in the assay with SW480 colon cancer cells, over 10000 nM; in assay [2], over 10000 nM; in assay [3], 10 nM; in the assay with IL-6, over 10000 nM. In addition, the Emax in assay [3] amounted to 191%.
Consider `CC(C)(C)C(=O)Nc1cncc(-c2cnc3[nH]nc(-c4cc5c(-c6ccncc6)cncc5[nH]4)c3c2)c1` [Compound 120, N-(5-(3-(4-(Pyridin-4-yl)-1H-pyrrolo[2,3-c]pyridin-2-yl)-1H-pyrazolo[3,4-b]pyridin-5-yl)pyridin-3-yl)pivalamide], for which the results for the inhibition at 10 µM (in assay [1]; in the assay on SW480 colon cancer cells) were 5% and 13.5%, respectively. The EC50 is over 10000 nM in assay [1], over 10000 nM in the assay on SW480 colon cancer cells, 2720 nM in assay [2] and 196 nM in the assay with IL-6. Also, in assay [3], the Emax was 34%.
In the case of `CCCCC(=O)Nc1cncc(-c2cnc3[nH]nc(-c4cc5c(-c6ccncc6)cncc5[nH]4)c3c2)c1` [Compound 131, N-(5-(3-(4-(Pyridin-4-yl)-1H-pyrrolo[2,3-c]pyridin-2-yl)-1H-pyrazolo[3,4-b]pyridin-5-yl)pyridin-3-yl)pentanamide], the inhibition at 10 µM turned out to be 3.4% in assay [1], 18.9% in the assay with SW480 colon cancer cells, 27.9% in assay [2] and 24.5% in the assay with IL-6. Besides, the EC50 in assay [1] is over 10000 nM; in the assay with SW480 colon cancer cells it was over 10000 nM; in assay [2], over 10000 nM; in assay [3] it was 10 nM; with IL-6 it was over 10000 nM. The Emax in assay [3] amounted to 70%.
As to `O=C(Nc1cncc(-c2cnc3[nH]nc(-c4cc5c(-c6ccncc6)cncc5[nH]4)c3c2)c1)C1CCC1` [Compound 133, N-(5-(3-(4-(Pyridin-4-yl)-1H-pyrrolo[2,3-c]pyridin-2-yl)-1H-pyrazolo[3,4-b]pyridin-5-yl)pyridin-3-yl)cyclobutanecarboxamide], the inhibition at 10 µM was 7% in assay [1], 18.9% with SW480 colon cancer cells and 43.3% with IL-6. The EC50 in assay [1] is over 10000 nM; with SW480 colon cancer cells, over 10000 nM; in assay [2] it was 4920 nM; with IL-6, over 10000 nM. For the same molecule, the Emax in assay [3] is 43%.
For `FC1(F)CCN(Cc2cncc(-c3cnc4[nH]nc(-c5cc6c(-c7ccncc7)cncc6[nH]5)c4c3)c2)C1` [Compound 138, 5-(5-((3,3-Difluoropyrrolidin-1-yl)methyl)pyridin-3-yl)-3-(4-(pyridin-4-yl)-1H-pyrrolo[2,3-c]pyridin-2-yl)-1H-pyrazolo[3,4-b]pyridine], the results for the inhibition at 10 µM (in assay [1]; with SW480 colon cancer cells) were 40.8% and 24.1%, respectively. The EC50 was over 10000 nM in assay [1], over 10000 nM with SW480 colon cancer cells, 875 nM in assay [2] and 486 nM with IL-6. The Emax in assay [3] is 37%.
Regarding `c1cc2cc(-c3n[nH]c4ncc(-c5cncc(CN6CCCC6)c5)cc34)[nH]c2cn1` [Compound 266, 5-(5-(Pyrrolidin-1-ylmethyl)pyridin-3-yl)-3-(1H-pyrrolo[2,3-c]pyridin-2-yl)-1H-pyrazolo[3,4-b]pyridine], the EC50 in assay [1] is 4880 nM; in the assay on SW480 colon cancer cells, 3680 nM; in assay [2] it was over 10000 nM; in the assay on IL-6 it was over 10000 nM. The inhibition at 10 µM in assay [2] was 12.9%; in the assay on IL-6 it was 47.6%. The Emax in assay [3] is 36%.

(Values after patent publication US20180221352A1, “3-(1H-PYRROLO[2,3-C]PYRIDIN-2-YL)-1H-PYRAZOLO[3,4-B]PYRIDINES AND THERAPEUTIC USES THEREOF” (Samumed, LLC, priority 2015, published 2018).)
